Test results: paper PMC10058949, “Effect of N-Terminal Peptide Modifications on In Vitro and In Vivo Properties of ^177Lu-Labeled Peptide Analogs Targeting CCK2R” (Pharmaceutics, 2023)
Where two headings read alike, the source gives them in different places.

Key:
[1] = Biodistribution blocking experiment with 1000-fold excess of non-radiolabeled peptide; format: in vivo, mice; conditions: female, BALB/c nude, mouse, iv, total radioactivity, 4 h p.i., 1000-fold excess of non-radiolabeled peptide, n=1
Procedure: (§1) Then, after 7–11 days, when visible tumor xenografts were formed, groups of 5 mice were injected intravenously via a lateral tail vein with ~0.5 MBq of radiolabeled peptide, corresponding to 20 pmol of peptide, in a total volume of ~150 µL in PBS/0.5% BSA. Using an additional mouse per group, a blocking study was performed by co-injecting a 1000-fold molar excess of the respective peptide analog (20 nmol) together with the radiolabeled peptide. For quantification, a 1:1, 1:10 and 1:50 standard was prepared using aliquots of the injection solution mixed with PBS/0.5% BSA. Mice were euthanized by cervical dislocation 4 h after injection. Subsequently, a blood sample was collected, and different tissues were dissected. All samples, as well as the rest of the body were weighed, and the activity measured in the γ-counter together with the standard. Results were expressed as percentage of injected activity per gram of tissue (%IA/g).

[2] = test system: A431-CCK2R/A431-mock xenografted BALB/c nude mice; assay: as above; format: in vivo; conditions: 4 h p.i., 1000-fold excess of non-radiolabeled peptide, n=1
Procedure: as §1

[3] = Biodistribution 4 h p.i. in A431-CCK2R/A431-mock xenografted BALB/c nude mice; format: in vivo; conditions: female, BALB/c nude, mouse, iv, 20 pmol, total radioactivity, 4 h p.i., 20 pmol; for tissue uptake at 4 h: ~0.5 MBq, n=5
Procedure: as §1

[4] = test system: A431-CCK2R/A431-mock xenografted BALB/c nude mice; assay: as above; format: in vivo; conditions: 4 h p.i., ~0.5 MBq, 20 pmol, n=5
Procedure: as §1

[5] = Stability of 177Lu-labeled peptides in fresh human serum; format: in vitro ADME; conditions: 37 °C, 24 h incubation
Procedure: (§2) The stability studies with the ^177Lu-labeled peptide analogs were carried out at a concentration of 0.5 nmol peptide/mL in fresh human serum (n = 2) for up to 24 h. A mixture of 0.05 nmol/mL of the radiolabeled peptides in PBS and octanol (1/1, v/v) was used to evaluate the octanol/PBS distribution coefficient (logD7.4; n = 8). To determine the protein binding in human serum by Sephadex G-50 size-exclusion chromatography (GE Healthcare Illustra, Little Chalfont, UK), a 25 µL serum sample was used for different time points after incubation. All steps were performed according to previously published protocols.

[6] = Octanol/PBS distribution coefficient (logD7.4); format: physicochemical; conditions: octanol/PBS 1/1, pH 7.4; read-out: logD (octanol/PBS)
Procedure: as §2

[7] = Protein binding in human serum by Sephadex G-50 size-exclusion chromatography; format: in vitro ADME; conditions: human serum; time point not given
Procedure: as §2

[8] = BALB/c mice, cited from earlier work

tissue uptake at 4 h ([1]; A431-CCK2R tumor xenograft, read-out: uptake in A431-CCK2R xenograft, blocking): 0.54 %ID/g
tissue uptake at 4 h ([1]; A431-mock tumor xenograft, read-out: uptake in A431-mock xenograft, blocking): 0.34 %ID/g
tissue uptake at 4 h ([1]; blood, read-out: uptake in blood, blocking): 0.09 %ID/g
tissue uptake at 4 h ([1]; femur, read-out: uptake in femur, blocking): 0.04 %ID/g
tissue uptake at 4 h ([1]; heart, read-out: uptake in heart, blocking): 0.08 %ID/g
tissue uptake at 4 h ([1]; lung, read-out: uptake in lung, blocking): 0.08 %ID/g
tissue uptake at 4 h ([1]; pancreas, read-out: uptake in pancreas, blocking): 0.11 %ID/g
tissue uptake at 4 h ([1]; stomach, read-out: uptake in stomach, blocking): 0.09 %ID/g
uptake in intestine, blocking [2]: 0.79 % IA/g
uptake in kidneys, blocking [2]: 2.95 % IA/g
uptake in liver, blocking [2]: 0.54 % IA/g
uptake in muscle, blocking [2]: 0.03 % IA/g
uptake in spleen, blocking [2]: 0.16 % IA/g
tissue uptake at 4 h ([3]; A431-CCK2R tumor xenograft, read-out: uptake in A431-CCK2R xenografts): 22.8 ± 4.67 %ID/g
tissue uptake at 4 h ([3]; A431-mock tumor xenograft, read-out: uptake in A431-mock xenografts): 0.19 ± 0.03 %ID/g
tissue uptake at 4 h ([3]; blood, read-out: uptake in blood): 0.11 ± 0.11 %ID/g
tissue uptake at 4 h ([3]; femur, read-out: uptake in femur): 0.36 ± 0.35 %ID/g
tissue uptake at 4 h ([3]; heart, read-out: uptake in heart): 0.1 ± 0.06 %ID/g
tissue uptake at 4 h ([3]; intestine, read-out: uptake in intestine): 1.02 ± 0.23 %ID/g
tissue uptake at 4 h ([3]; kidneys, read-out: uptake in kidneys): 3.45 ± 0.91 %ID/g
tissue uptake at 4 h ([3]; liver, read-out: uptake in liver): 1.02 ± 0.8 %ID/g
tissue uptake at 4 h ([3]; lung, read-out: uptake in lung): 0.17 ± 0.14 %ID/g
tissue uptake at 4 h ([3]; muscle, read-out: uptake in muscle): 0.1 ± 0.02 %ID/g
tissue uptake at 4 h ([3]; pancreas, read-out: uptake in pancreas): 1.91 ± 0.91 %ID/g
tissue uptake at 4 h ([3]; spleen, read-out: uptake in spleen): 0.27 ± 0.18 %ID/g
tissue uptake at 4 h ([3]; stomach, read-out: uptake in stomach): 6.26 ± 4.28 %ID/g
tissue to tissue ratio at 4 h ([3]; tumor / kidney, read-out: tumor-to-kidney ratio): 7
uptake in liver [4]: 1.02 ± 0.23 % IA/g
intact radiopeptide in human serum [5]: 96.9 ± 0.3%
logD [6]: -2.25 ± 0.13
fraction unbound [7]: 0.667
SMILES: CCCC[C@@H](C(=O)N[C@@H](CC(=O)O)C(=O)N[C@@H](Cc1cccc2ccccc12)C(N)=O)N(C)C(=O)[C@H](Cc1c[nH]c2ccccc12)NC(=O)CNC(=O)[C@H](Cc1ccc(O)cc1)NC(=O)[C@H](C)NC(=O)[C@@H](CCC(=O)O)NC(=O)CN1CCN(CC(=O)O)CCN(CC(=O)O)CCN(CC(=O)O)CC1 [[^177Lu]Lu-DOTA-MGS5, metal not drawn, reference compound]
intact radiopeptide in blood ([8]; 10 min after intravenous injection): 86%
intact radiopeptide in blood ([8]; 30 min p.i.): 77%
intact radiopeptide in blood ([8]; 1 h after intravenous injection): 70%
